In PubChem BioAssay (NCI):
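1) Cells in 96-well plates. 2) Compound, 48 h, 5 concentrations. 3) Linear interpolation between surrounding doses. 4) Unreached endpoint = highest concentration. TGI marks complete inhibition of growth.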

Key:
Test in all cases: inhibition of tumour cell growth, NCI panel, 48 h
A549 NSCLC = test system: A549 NSCLC
ACHN renal = test system: ACHN renal
CCRF-CEM leukemia = test system: CCRF-CEM leukemia
DMS 273 small cell lung = test system: DMS 273 small cell lung
HL-60(TB) leukemia = test system: HL-60(TB) leukemia
HOP-92 NSCLC = test system: HOP-92 NSCLC
KM12 colon = test system: KM12 colon
LOX IMVI melanoma = test system: LOX IMVI melanoma
M14 melanoma = test system: M14 melanoma
M19-MEL melanoma = test system: M19-MEL melanoma
MOLT-4 leukemia = test system: MOLT-4 leukemia
NCI-H522 lung = test system: NCI-H522 lung
OVCAR-5 ovarian = test system: OVCAR-5 ovarian
OVCAR-8 ovarian = test system: OVCAR-8 ovarian
RXF 393 renal = test system: RXF 393 renal
SNB-19 CNS = test system: SNB-19 CNS
TK-10 renal = test system: TK-10 renal
U251 CNS = test system: U251 CNS
UO-31 renal = test system: UO-31 renal
XF 498 CNS = test system: XF 498 CNS

Row | SMILES | TGI (A549 NSCLC) | TGI (ACHN renal) | TGI (CCRF-CEM leukemia) | TGI (DMS 273 small cell lung) | TGI (HL-60(TB) leukemia) | TGI (HOP-92 NSCLC) | TGI (KM12 colon) | TGI (LOX IMVI melanoma) | TGI (M14 melanoma) | TGI (M19-MEL melanoma) | TGI (MOLT-4 leukemia) | TGI (NCI-H522 lung) | TGI (OVCAR-5 ovarian) | TGI (OVCAR-8 ovarian) | TGI (RXF 393 renal) | TGI (SNB-19 CNS) | TGI (TK-10 renal) | TGI (U251 CNS) | TGI (UO-31 renal) | TGI (XF 498 CNS)
1 | COC(=O)C(=O)C(C(C)=O)C(=O)C(=O)Nc1ccc(C)cc1C (stereo not drawn) | > 100 µM | > 100 µM | > 100 µM | > 100 µM | > 100 µM | > 100 µM | > 100 µM | > 100 µM | > 100 µM | > 100 µM | > 100 µM | > 100 µM | > 100 µM | > 100 µM | > 100 µM | > 100 µM | > 100 µM | > 100 µM | > 100 µM | > 100 µM
2 | COc1ccc(N[C@@H]2c3cc4c(cc3C(c3cc(OC)c(O)c(OC)c3)[C@H]3C(=O)OCC32)OCO4)cc1OC (stereo partly drawn) | – | – | > 39.3 µM | > 100 µM | – | > 100 µM | > 21.8 µM | > 100 µM | – | > 100 µM | – | > 25.3 µM | > 100 µM | > 100 µM | > 26.9 µM | > 79.2 µM | – | > 67.5 µM | > 100 µM | > 61.8 µM
3 | CCCCCC(/C=C/c1ncccc1OCCCCCC(=O)O)=N\NC1=NCCN1 | > 100 µM | > 100 µM | > 100 µM | > 100 µM | > 100 µM | > 100 µM | > 100 µM | > 100 µM | > 100 µM | > 100 µM | > 100 µM | > 100 µM | > 100 µM | > 100 µM | > 100 µM | > 100 µM | > 100 µM | – | > 100 µM | 54.8 µM
4 | N#CCCN(CCC#N)c1ccc(/C=C(/NC(=O)Nc2ccccc2Cl)NC(=O)c2cc([N+](=O)[O-])ccc2Cl)cc1 | > 100 µM | > 100 µM | > 100 µM | > 100 µM | – | > 100 µM | > 100 µM | > 100 µM | > 100 µM | > 100 µM | > 100 µM | > 100 µM | > 100 µM | > 100 µM | > 100 µM | > 100 µM | > 100 µM | > 100 µM | > 100 µM | > 100 µM
5 | O=S(=O)(CF)OCCCCOS(=O)(=O)CF | – | > 100 µM | > 100 µM | > 100 µM | > 100 µM | 82.6 µM | – | > 100 µM | > 100 µM | > 100 µM | > 100 µM | > 100 µM | – | > 100 µM | – | > 100 µM | > 100 µM | > 100 µM | > 100 µM | –
6 | Cn1c(=O)[nH]c2c(c1=O)C(=O)CN2 | > 100 µM | – | > 100 µM | > 100 µM | > 100 µM | – | > 100 µM | > 100 µM | > 100 µM | > 100 µM | > 100 µM | – | > 100 µM | > 100 µM | > 100 µM | > 100 µM | > 100 µM | > 100 µM | > 100 µM | > 100 µM
7 | C[Si](C)(C)/C=C/CN1C(=O)CCC1=O | > 100 µM | > 100 µM | > 100 µM | > 100 µM | > 100 µM | > 100 µM | > 100 µM | > 100 µM | > 100 µM | > 100 µM | – | > 100 µM | > 100 µM | – | – | > 100 µM | > 100 µM | > 100 µM | > 100 µM | > 100 µM
8 | O=C(NCCN(CCNC(=O)c1cccc(=O)n1O)CCNC(=O)c1cccc(=O)n1O)c1cccc(=O)n1O | > 100 µM | > 100 µM | > 100 µM | – | > 100 µM | > 100 µM | > 100 µM | – | > 100 µM | – | – | > 100 µM | > 100 µM | > 100 µM | > 100 µM | > 100 µM | > 100 µM | > 100 µM | > 100 µM | –
9 | CN(C(=O)c1ccccc1)c1ccc2c(c1)C(=O)c1ccccc1C2=O | – | > 100 µM | > 100 µM | > 100 µM | – | > 100 µM | > 100 µM | > 100 µM | > 100 µM | > 100 µM | > 100 µM | > 100 µM | > 100 µM | > 100 µM | > 100 µM | – | > 100 µM | > 100 µM | > 100 µM | > 100 µM
